Measured values as given in patent US20150342897A1, “POLYPEPTIDE LOADED POCA NANOPARTICLES FOR ORAL ADMINISTRATION” (Glaxo Group Limited, priority 2012, published 2015).

Test: Reduction in blood glucose levels after single i.v. dose
Format: in vivo, C57BL/6 mice
Details: single i.v. dose equivalent to 1 μg/100 μl
Procedure: C57BL/6 mice were given a single i.v. dose of exendin-4 loaded POCA nanoparticles (equivalent to 2 μg peptide/100 μl), non encapsulated (free) exendin-4 peptide (equivalent to 1 μg/100 μl) or saline as a control. In order to monitor blood glucose levels, 2-3 μl blood samples were taken from the peripheral tail vein of each animal prior to dosing and again at 0.5, 1, 2, 3, 4 and 8 hours post dose. Each sample was analysed using a hand held glucose monitor (BAYER […] BREEZE 2TM).

exendin-4 [non encapsulated exendin-4]
reduction in blood glucose levels from baseline (2 hours post dose, FIG. 3): ~30%
blood glucose levels at 8 hours post dose (8 hours post dose): returned to baseline
